Where “and” joins values, the source holds several entries; their conditions need not be identical. Identical values can stand only once.
Tests used:
[1] = target: T1, recombinant human FLAP protein (Homo sapiens, UniProt P20292); assay: FLAP binding assay (SPA, displacement of [125I]L-691,831); conditions: @1000 nM
T1 construct: made in house; host or cells: Sf9 insect cells (membrane fraction, 100,000 x g pellet)
T1 sequence (P20292 1-161): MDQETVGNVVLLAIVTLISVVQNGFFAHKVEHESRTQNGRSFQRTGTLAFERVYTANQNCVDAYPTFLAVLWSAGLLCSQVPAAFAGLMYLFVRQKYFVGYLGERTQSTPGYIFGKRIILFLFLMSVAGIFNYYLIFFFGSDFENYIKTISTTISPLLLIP
Description: Assessment of Biological Properties 1. Binding Assay
Cell pellets produced from sf9 insect cells expressing recombinant human FLAP protein are resuspended in buffer A [15 mM Tris-HCl (pH 7.5), 2 mM MgCl2, 0.3 mM EDTA, 1 mM PMSF]. The cells are lysed with a Dounce homogenizer and the material is centrifuged at 10,000×g for 10 minutes. The supernatant is then collected and centrifuged at 100,000×g for 60 minutes. To prepare membrane protein for an assay, an aliquot of the 100,000×g pellet is resuspended in 1 ml of buffer A, Dounce homogenized, and finally subjected to polytron mixing (30 seconds). Membrane protein (25 μl, 5 μg) is mixed with WGA SPA beads (Amersham) and stirred for 1 h.

proteinuria = conditions: clinical trial, human glomerulonephritis; cited from earlier work
[2] = test system: atherosclerotic plaque in the descending aorta; assay: 13 week HF/HC diet rabbit model of atherosclerosis, on top of simvastatin; format: in vivo, NZW rabbits; conditions: compound 115 2.5 mg/kg and simvastatin 2.5 mg/kg; p=0.05
Description: The objective of the study is to determine if the compounds of Formula I provide additional reduction in atherosclerosis development in high fat/high cholesterol (HF/HC) fed rabbits on top of simvastatin compared to simvastatin alone. Treatment with a statin is considered the standard of care for atherosclerosis clinically. In order to determine if the anti-atherosclerotic effect observed in rabbits is effective on top of statin treatment, rabbits were treated with compound 115 (Table 1) in combination with simvastatin and the effects on atherosclerosis reduction with both control and statin treatment alone were compared. […] The rabbits were fed 125 g of rabbit chow each day and both food consumption and body weights were measured throughout the study period. […] The extent of atherosclerosis development was measured in the descending aorta after the vessels were pinned out on the silicone surface of metal trays and stained with Sunan IV stain. […] The percentage of plaque area of the descending aorta was determined. […] Atherosclerotic lesion formation was quantified by image analysis software using ImagePro Plus software. The mean of thee different sections 100 μm apart was determined. The mean value of each parameter was calculated for each different treatment group and compared to the control value. […]

With `CC(C)C(C)(c1ccc(-c2cnc(N)nc2)cc1)c1noc(O)n1` (stereo not drawn) [Example 88, 3-{1-[4-(2-Amino-pyrimidin-5-yl)-phenyl]-1,2-dimethyl-propyl}-[1,2,4]oxadiazol-5-ol] the “FLAP binding % inh” value [1] was 51% inh@1000 nM.
In the case of `CC(C)(C)Sc1c(CC(C)(C)C(=O)O)n(Cc2ccc(Cl)cc2)c2ccc(OCc3ccc4ccccc4n3)cc12` [MK-591], the effect on proteinuria (proteinuria) is given as “reduce proteinuria”.
With `CN(C)C(=O)Cn1cc(-c2nc([C@@](C)(c3ccc(-c4cnc(N)nc4)cc3)C3CC3)no2)cn1` (single isomer, unassigned) [Example 115] the “further reduction in plaque area compared to simvastatin alone” value [2] was 32% and 34%.
